Assay results as given in patent US20230234917A1, “ASPARAGINE DERIVATIVES AND METHODS OF USING SAME” (priority 2020, published 2023).
pIC50: −log10 of the molar value.

Tests used:
Full-length WT ClbP = Full-length WT ClbP (Escherichia coli, UniProt Q0P7K6); assay: ClbP molecular (purified protein) enzymatic inhibition assay, fluorogenic substrate; format: biochemical, E. coli
Protocol: ClbP Molecular (Purified Protein) Assay
1) Full-length WT ClbP was thawed on ice. A diluted enzyme solution (2 nM) was made by mixing 3.57 μL of enzyme with 20 mL of reaction buffer (50 mM Tris pH 8.0, 200 mM NaCl, 0.02% (w/v) n-dodecyl-b-D-maltoside (DDM)).
2) In a 96 well plate, the diluted protein solution (73.5 μL) was mixed with inhibitor (1.5 μL, of varying concentrations, see below) and preincubated for 15 min at room temperature. Then, reaction buffer (75 μL) containing 10 μM fluorogenic substrate was added to initiate the reaction. After addition of substrate, the final concentrations were 1 nM full-length WT ClbP, 5 μM fluorogenic substrate in 50 mM Tris pH 8.0, 200 mM NaCl, 0.02% (w/v) DDM, with either 0, 0.14, 0.41, 1.2, 3.7, 11, 33, or 100 μM inhibitor. For all conditions, the DMSO carryover was 2% (v/v) at the preincubation stage and 1% in the reaction stage. Compound No. III was always present as a control in each plate, and all compounds were tested in singlicate. In previous assays, the Km of the fluorogenic substrate was determined to be approximately 5 μM.
3) Immediately after addition of substrate to enzyme, the plate was transferred into a spectrophotometer held at room temperature. The fluorescence was recorded every 1.5 min for 15 min. The excitation wavelength was 360 nm (20 nm bandwidth), the emission wavelength was 440 nm (20 nm bandwidth), the optics position was bottom, the gain was extended, the light source was a xenon flash lamp, and the read speed was normal.
(§1) 4) The linear portion of the fluorescence increase is at least from 0-6 min, so this time regime is used. The rate of fluorescence increase (A.U./min) for each well in an inhibitor series was normalized to the 0 μM inhibitor condition. The normalized activity as a function of inhibitor concentration was then fit to a three parameter IC50 curve in Graphpad Prism.
(§2) “A” indicates an IC50 value less than 100 μM, “B” indicates an IC50 between 100 and 300 μM, “C” indicates an IC50 above 300 μM.

ClbP [1] = target: T1, ClbP (Escherichia coli, UniProt Q0P7K6); assay: ClbP whole cell activity (inhibition) assay, fluorogenic substrate; format: cell-based, E. coli
Protocol: Whole Cell Activity Assay
(§3) 1) E. coli ClbP+ were taken from a frozen stock and streaked onto BHI plates. They were grown aerobically at 37° C. overnight in the incubator.
(§4) 1) A single colony was selected from the plate and inoculated into 30 mL LB in a 50 mL conical vial eight times (240 mL total). The bacteria were grown aerobically overnight (16-20 h) at 37° C. on a nutator with rocking.
1) The saturated overnight culture was centrifuged to create a firm pellet (3,200 g, 10 min, 4° C.). In a biosafety cabinet, the supernatant was removed and then the pellet was resuspended in 30 mL sterile PBS.
2) The bacteria were centrifuged again (3,200 g, 10 min, 4° C.). The supernatant was removed, and the pellet was resuspended in sterile PBS buffer (6 mL) in each of the 8 tubes. This fivefold concentrated bacterial solution was the working solution.
3) The bacterial working solution (192 μL) was mixed with inhibitor (6 μL, final concentration was 300, 100, 33.3, 11.1, 3.7, 1.2, 0.4, or 0 μM). Fluorogenic substrate (2 μL, final concentration 5 μM) was immediately added across the plate to initiate the reaction. As a control, each plate contained Compound No. III in this dose response curve. The bacterial concentration was fivefold concentrated compared to the original saturated overnight culture. Carryover from DMSO was 4% (v/v). All compounds were tested in singlicate.
(§5) 4) The plate was loaded into a spectrophotometer preheated to 37° C. The fluorescence was recorded every 2 min for 46 min. The excitation wavelength was 360 nm (20 nm bandwidth), the emission wavelength was 460 nm (20 nm bandwidth), the optics position was bottom, the gain was 65, the light source was a tungsten bulb, and the read speed was normal.
as §1, with “5)” for “4)”, “was 10-30 min.” for “is at least from 0-6 min, so this time regime is used.”
as §2

ClbP [2] = target: T1, ClbP; assay: ClbP cell lysate activity (inhibition) assay, fluorogenic substrate; format: biochemical; conditions: ClbP Lysate Inhibition Assay: IC50, E. coli ClbP+ lysozyme-EDTA lysates, 5 μM fluorogenic substrate, inhibitor 0-300 μM, 37° C., singlicate
Protocol: Cell Lysate Activity Assay
as §3, §4
1) The saturated overnight culture was centrifuged to create a firm pellet (3,200 g, 10 min, 4° C.). The supernatant was removed and then the pellet was resuspended in 30 mL sterile PBS.
2) The bacteria were centrifuged again (3,200 g, 10 min, 4° C.). The supernatant was removed, and the pellet was resuspended in sterile PBS buffer (3 mL) in each 8 tubes to make a tenfold concentrated bacterial solution.
3) A lysozyme-EDTA (LE) solution was made in ddH2O (0.05 mg/mL lysozyme, 0.25 M EDTA).
4) For each of the eight tubes, LE solution (3 mL) was mixed with concentrated bacterial solution (3 mL). This mixture was incubated at 37° C. for 30 min to generate the lysates.
5) The lysates (192 μL) were mixed with inhibitor (6 μL, final concentration was 300, 100, 33.3, 11.1, 3.7, 1.2, 0.4, or 0 μM). Fluorogenic substrate (2 μL, final concentration 5 μM) was immediately added across the plate to initiate the reaction. As a control, each plate contained Compound No. III in this dose response curve. The final concentration of bacterial lysates was fivefold concentrated compared to the original saturated overnight culture. Carryover from DMSO was 4% (v/v). All compounds were tested in singlicate.
as §5, with “6)” for “4)”
as §1, with “7)” for “4)”, “was 0-20 min.” for “is at least from 0-6 min, so this time regime is used.”
as §2

Row | SMILES | pIC50 (Full-length WT ClbP) | pIC50 (ClbP [1]) | pIC50 (ClbP [2])
1 | NC(=O)C[C@@H](NC(=O)CCCCCCC(=O)O)C(=O)NCCc1ccccc1 [Compound CCLXIV] | 3.52 to 4.00 | < 3.52 | < 3.52
2 | CCCCCCCC(=O)N[C@@H](CNC(C)(C)C)CC(N)=O [Compound VIII] | > 4.00 | > 4.00 | > 4.00
3 | CCCCCCCC(=O)N[C@H](CC(N)=O)C(=O)NCCc1c[nH]cn1 [Compound CCXXVII] | > 4.00 | > 4.00 | > 4.00
4 | CCCCCCCC(=O)N[C@H](CC(N)=O)C(=O)O[C@@H](C)C(=O)OC [Compound LXXVI] | 3.52 to 4.00 | > 4.00 | > 4.00
5 | CCCCCCCC(=O)N[C@@H](/C=C/C(=O)OCC)CC(N)=O [Compound CCLXXIII] | 3.52 to 4.00 | < 3.52 | < 3.52
6 | CCCCCCCC(=O)N[C@H](CC(N)=O)C(=O)N[C@@H](C)Cc1ccccc1 [Compound CCIV] | 3.52 to 4.00 | < 3.52 | < 3.52
7 | CCCCCCCC(=O)N[C@H](CC(N)=O)C(=O)NCCc1ccc(OC)nc1 [Compound CCXXXVII] | > 4.00 | > 4.00 | > 4.00
8 | NC(=O)C[C@@H](NC(=O)CC1CCCCC1)C(=O)NCCc1ccccc1 [Compound CCLXXI] | > 4.00 | 3.52 to 4.00 | < 3.52
9 | CCCCCCCC(=O)N[C@H](CC(N)=O)C(=O)C(=O)NCc1ccccc1 [Compound CCLXXXIII] | > 4.00 | > 4.00 | > 4.00
10 | CCCCCCCC(N[C@H](CC(N)=O)C(=O)NCCc1ccccc1)C(F)(F)F (stereo partly drawn) [Compound CCXIV] | > 4.00 | < 3.52 | < 3.52
11 | O=C(/C=C/CC1CCCCC1)N[C@H](CC(=O)NO)C(=O)NCCc1ccc(O)cc1 [Compound CCXCVII] | > 4.00 | > 4.00 | > 4.00
12 | CCCCCCCC(=O)N[C@H](CC(N)=O)C(=O)NCc1ccccc1 [Compound CCI] | > 4.00 | > 4.00 | > 4.00
13 | CCCCCCCC(=O)N[C@H](CC(N)=O)C(=O)NCCc1ccncc1 [Compound CCVIII] | > 4.00 | > 4.00 | > 4.00
14 | CCCCCCCC(=O)N[C@H](CC(N)=O)C(=O)NCCc1ccc(O)c(O)c1 [Compound CCXXVI] | > 4.00 | > 4.00 | > 4.00
15 | NC(=O)C[C@@H](NC(=O)CCCCC(F)(F)F)C(=O)NCCc1ccc(O)cc1 [Compound CCXCII] | > 4.00 | > 4.00 | > 4.00
16 | CCCCCCCCCC(=O)N[C@@H]1CC(=O)NC1(O)C(=O)NCc1ccccc1 (stereo partly drawn) [Compound […]] | > 4.00 | 3.52 to 4.00 | 3.52 to 4.00
17 | CCCCCCCC(=O)N[C@H](CC(N)=O)C(=O)NCCc1cc(F)c(O)c(F)c1 [Compound CCLVI] | > 4.00 | > 4.00 | > 4.00

Row | SMILES | pIC50 (Full-length WT ClbP) | pIC50 (ClbP [1]) | pIC50 (ClbP [2])
18 | CCCCCCCNC(=O)[C@H](CC(N)=O)NC(=O)Oc1ccccc1 [Compound CCX] | 3.52 to 4.00 | < 3.52 | < 3.52
19 | CCCCCCCC(=O)N[C@H](CC(N)=O)C(=O)N(C)CCc1ccc(O)cc1 [Compound CCLXXVII] | > 4.00 | > 4.00 | > 4.00
20 | CCCCCCCCCC(=O)N[C@H](CC(N)=O)C(=O)NCCc1ccccc1 [Compound CCLXVI] | > 4.00 | > 4.00 | > 4.00
21 | CCCCCCCC(=O)N[C@H](CC(N)=O)C(=O)NCCN1CCN(C)CC1 [Compound CXC] | 3.52 to 4.00 | < 3.52 | < 3.52
22 | CC(=O)N[C@H](CC(N)=O)C(=O)NCCc1ccccc1 [Compound CCLXV] | 3.52 to 4.00 | < 3.52 | < 3.52
23 | CCCCCCCC(=O)N[C@H](CC(N)=O)c1nnn(C(C)(C)C)n1 [Compound XIX] | 3.52 to 4.00 | < 3.52 | < 3.52
24 | O=C(C[C@@H](NC(=O)CCC1CCCCC1)C(=O)NCCc1ccc(O)cc1)NO [Compound CCXCV] | > 4.00 | > 4.00 | > 4.00
25 | CCCCCCCC(=O)N[C@H](CC(N)=O)C(=O)NCCc1ccsc1 [Compound CCVI] | > 4.00 | > 4.00 | > 4.00
26 | NC(=O)C[C@@H](NC(=O)CCC1CCCCC1)C(=O)NCCc1ccccc1 [Compound CCXLIII] | > 4.00 | > 4.00 | > 4.00
27 | NC(=O)C[C@@H](NC(=O)CCCC1CCCCCC1)C(=O)NCCc1ccc(O)cc1 [Compound CCXLI] | > 4.00 | > 4.00 | > 4.00
28 | CCCCCCCC(=O)N[C@H](CC(N)=O)C(=O)NCCc1ccc(C(F)(F)F)cc1 [Compound CXCV] | 3.52 to 4.00 | < 3.52 | < 3.52
29 | CCCCCCCC(=O)N[C@H](CC(N)=O)C(=O)N(CCc1ccc(O)cc1)C(C)C [Compound CCLXXVI] | > 4.00 | < 3.52 | > 4.00
30 | NC(=O)C[C@@H](NC(=O)CCCCCCCCC(F)(F)F)C(=O)NCCc1ccc(O)cc1 [Compound CCCIV] | > 4.00 | > 4.00 | > 4.00
31 | CCCCCCCC(=O)N[C@H](CC(N)=O)CN(C)CCc1ccccc1 [Compound XVI] | > 4.00 | < 3.52 | > 4.00
32 | O=C(C[C@@H](NC(=O)CCCC1CCCCC1)C(=O)NCCc1ccc(O)cc1)NO [Compound CCXCVI] | > 4.00 | > 4.00 | > 4.00
33 | CCCCCCCC(=O)N[C@H](CC(N)=O)C(=O)NCCc1ccccc1O [Compound CCXXIV] | > 4.00 | > 4.00 | > 4.00
34 | CCCCCCCC(=O)N[C@H](CC(N)=O)C(=O)NCCCc1ccccc1 [Compound CCXIII] | > 4.00 | > 4.00 | > 4.00
